Reference: patent US20250255856A1, “THERAPEUTIC COMPOSITIONS WITH IMINO SUGARS FOR THE TREATMENT OF DISEASES WITH ACCUMULATION OF HEPARAN SULFATE” (priority 2022, published 2025)
Counter-ions that a name gives are not always drawn.

Experiments:
[1] = system: human adult dermal fibroblasts HDFa; assay: HS and Lamp1 immunofluorescence in control fibroblasts HDFa; type: cell-based; conditions: 20 μM, 48 hours
Method: (§1) To verify whether the selected iminosugars could exert the same effects also on the fibroblasts of patients affected by Sanfilippo disease, human adult dermal fibroblasts HDFa (purchased from Sigma-Aldrich) were used as control, and fibroblasts of patients affected by Sanfilippo A and B (MPS IIIA and IIIB) were used as disease model.
(§2) Cells were cultured in the presence of the selected L-iminosugars at a dosage of 20 μM and after 48 hours were treated for HS and Lamp1 immunofluorescence. Treatment with L-iminosugars had no effect on control HDFa (Table 3).
(§3) Cells were grown in the presence of the iminosugars D-DNJ, D-NBDNJ, D-AMPDNM and D-MONDNJ at the dosage of 20 μM and after 48 hours were treated for HS and Lamp1 immunofluorescence. Treatment with D-iminosugars had no effect on HDFa and fibroblasts of patients affected by Sanfilippo A and B (MPS IIIA and MPS IIIB) both on HS and lysosome accumulation (Table 4).

[2] = system: NAGLU-silenced clone (cl5) of human neuroblastoma cell line SK-NBE; assay: Heparan sulfate (HS) immunofluorescence in NAGLU-silenced SK-NBE clone, Sanfilippo B model; type: cell-based; conditions: 48 hours; for Cells positive for HS (%) / Relative HS fluorescence intensity: cl5 clone, 20 μM; for Effect on HS staining / HS accumulation, in words: clone 5, 20 μM
Description: (§4) To study the effects of the compounds on the lysosomal dysfunctions in a neuronal model of Sanfilippo B disease (MPS IIIB), we recently generated stable clones of the human neuroblastoma cell line SK-NBE silenced for the NAGLU gene causative of MPS IIIB [De Pasquale V, et al. (2021). Biochim Biophys Acta Mol Cell Res. 1868, 119113.]. Mimicking the features of Sanfilippo B disease, silencing of NAGLU causes accumulation of heparan sulfate and accumulation of lysosomes in the cytoplasm of stable SK-NBE clones compared to the control (WT) clone.
Clone 5 was grown in the presence of 20 μM of each L-iminosugar under normal growth conditions and after 48 hours the accumulation of heparan sulfate (HS) was evaluated by immunofluorescence staining for HS.

[3] = system: NAGLU-silenced clone (cl5) of human neuroblastoma cell line SK-NBE; assay: Lamp1 immunofluorescence (lysosomal accumulation) in NAGLU-silenced SK-NBE clone, Sanfilippo B model; type: cell-based; conditions: 48 hours; for Cells positive for Lamp1 (%) / Relative Lamp1 fluorescence intensity: cl5 clone, 20 μM; for Effect on lysosomal enlargement and accumulation (lysosomal phenotype), in words: clone 5, 20 μM
Description: as §4
(§5) Therefore, NAGLU-silenced clone (c15) and control clone (WT) were selected to test the effect of L-deoxyminosugars (L-DNJ, L-NBDNJ, L-NNDNJ, L-HPDNJ, L-NPDNJ, L-AMPDNM and L-MONDNJ) in the hydrochloride form on the lysosomal phenotype of our cell model of Sanfilippo B (MPS IIIB).
(§6) Clone 5 was cultured in the presence of 20 μM of each L-deoxyminosugar under normal growth conditions and after 48 hours the lysosomal accumulation was evaluated with immunofluorescence technique by using a specific antibody against Lamp1 (lysosomal marker). […] Furthermore, upon treatment with the active L-deoxyminosugar the lysosomes are no longer concentrated in the perinuclear region of the cells, as occurs in several lysosomal diseases, but they are physiologically distributed throughout the cytoplasm.

[4] = system: HeLa tumor epithelial cells; assay: HS immunostaining in HeLa cells; type: cell-based; conditions: 48 hours
Method: To test whether treatment with the selected L-deoxyminosugars (L-DNJ, L-NBDNJ, L-AMPDNM and L-MONDNJ) could interfere with HS synthesis we selected a cell line not mutated for NAGLU and highly decorated by heparan sulfate on the cell membrane. For this purpose, HeLa tumor epithelial cells (purchased from ATCC) were cultured for 48 hours in the presence of the selected L-iminosugars and the amount of HS was evaluated by immunostaining.

[5] = system: HeLa tumor epithelial cells; assay: HeLa cell proliferation assay; type: cell-based; conditions: after 48 hours
Method: Furthermore, treatment with the L-deoxyminosugars L-DNJ, L-NBDNJ, L-AMPDNM and L-MONDNJ caused a decrease of the number of HeLa cells after 48 hours as shown by the cell proliferation assay reported in Table 6.

[6] = system: fibroblasts of patients affected by Sanfilippo B (MPS IIIB); assay: HS and Lamp1 immunofluorescence in Sanfilippo B patient fibroblasts; type: cell-based, human; conditions: 20 μM, 48 hours; for Relative fluorescence intensity compared to HDFa, HS / Relative fluorescence intensity compared to HDFa, Lamp1 / Cells positive for HS (%) / Cells positive for Lamp1 (%): MPS-IIIB fibroblasts; for Effect on HS and lysosome (Lamp1) accumulation, in words: Sanfilippo B (MPS IIIB) patient fibroblasts
Description: as §1
(§7) The human cell lines, fibroblasts, from patients with MPS (Sanfilippo disease) used in the examples were obtained from the G. Gaslini Institute of Genoa, “Cell Line and DNA Biobank from Patients Affected by Genetic Diseases”-Telethon Genetic Biobank Network—Telethon research service. These cells are classified with identification codes and by type of disease without allowing patient identification. Cells were collected from the patients, at the Gaslini Institute, with informed consent to the collection extended to conservation and its possible use, for diagnosis and/or research purposes according to current legislation as required by the guidelines followed by the Telethon biobanks. The Network operates abiding by the Italian Privacy and Data Protection Laws in force, including: Italian Data Protection Authority, Personal Data Protection Code, Legislative Decree no. 196, 30 Jun. 2003, published in Official Gazette No. 174 of the Italian Republic, 29 Jul. 2003; Italian Data Protection Authority, General Authorization for the processing of genetic data, 24 Jun. 2011, published in Official Gazette No. 159 of Italian Republic, 11 Jul. 2011.
as §2, §3

[7] = system: fibroblasts of patients affected by Sanfilippo A (MPS IIIA); assay: HS and Lamp1 immunofluorescence in Sanfilippo A patient fibroblasts; type: cell-based, human; conditions: 20 μM, 48 hours; for Relative fluorescence intensity compared to HDFa, HS / Relative fluorescence intensity compared to HDFa, Lamp1 / Cells positive for HS (%) / Cells positive for Lamp1 (%): MPS-IIIA fibroblasts; for Effect on HS and lysosome (Lamp1) accumulation, in words: Sanfilippo A (MPS IIIA) patient fibroblasts
Description: as §1, §7, §2, §3

[8] = system: control clone (WT) of human neuroblastoma cell line SK-NBE; assay: Lamp1 immunofluorescence in control (WT) SK-NBE clone; type: cell-based; conditions: 20 μM, 48 hours
Description: as §4, §5, §6

[9] = system: control clone (WT) of human neuroblastoma cell line SK-NBE; assay: Heparan sulfate (HS) immunofluorescence in control (WT) SK-NBE clone; type: cell-based; conditions: 20 μM, 48 hours
[10] = system: NAGLU-silenced clone (cl5) of human neuroblastoma cell line SK-NBE; assay: Immunofluorescence against beta-amyloid peptide 1-42 in NAGLU-silenced SK-NBE clone; type: cell-based; conditions: 20 μM, 48 hours
Method: The clone (c15) stably silenced for NAGLU, the causative gene of MPS IIIB, is able to mimic the features of neurodegenerative diseases as it accumulates beta-amyloid fibers in the cytoplasm. In fact, Sanfilippo Syndrome is also defined as “childhood Alzheimer”.
The diseased clone (c15) was grown in the presence of L-DNJ, L-NBDNJ, L-AMPDNM and L-MONDNJ and the corresponding enantiomers D-DNJ, D-NBDNJ, D-AMPDNM and D-MONDNJ at a dosage of 20 μM and after 48 hours were processed by immunofluorescence against the beta-amyloid peptide 1-42. […] On contrary, treatment with the corresponding D-enantiomers has no effect on the reduction of the accumulation of amyloid fibers compared to the untreated clone (mock) (Table 7).

Structure (SMILES) | Relative fluorescence intensity compared to HDFa, HS [1] | Relative fluorescence intensity compared to HDFa, Lamp1 [1] | Cells positive for HS (%) [2] | Relative HS fluorescence intensity [2] | Effect on HS staining / HS accumulation, in words [2] | Cells positive for Lamp1 (%) [3] | Relative Lamp1 fluorescence intensity [3] | Effect on lysosomal enlargement and accumulation (lysosomal phenotype), in words [3] | Effect on HS accumulation on the HeLa cell membrane, in words [4] | Relative HS fluorescence intensity [4] | Cell number [5] | Relative fluorescence intensity compared to HDFa, HS [6] | Relative fluorescence intensity compared to HDFa, Lamp1 [6] | Effect on HS and lysosome (Lamp1) accumulation, in words [6] | Relative fluorescence intensity compared to HDFa, HS [7] | Relative fluorescence intensity compared to HDFa, Lamp1 [7] | Effect on HS and lysosome (Lamp1) accumulation, in words [7] | Cells positive for Lamp1 (%) [8] | Relative Lamp1 fluorescence intensity [8] | Cells positive for HS (%) [9] | further results
CCCCCCCCCN1C[C@@H](O)[C@H](O)[C@@H](O)[C@@H]1CO [L-NNDNJ•HCl] | 1.0 | 1.0 | 97.5% | 3.71 | did not show any activity | 85% | 2.70 | did not show any activity | did not show any activity | 0.88 | 4.2 · 10^5 | 5.8 | 3.1 | did not show any activity | 4.9 | 3.0 | did not show any activity | 4.1% | 1.04 | 4.1% | Relative HS fluorescence intensity [9]: 0.94
CCCCCCOCCCCCN1C[C@@H](O)[C@H](O)[C@@H](O)[C@@H]1CO [L-HPDNJ•HCl] | 1.0 | 1.0 | 95.1% | 3.60 | did not show any activity | 87% | 2.10 | did not show any activity | did not show any activity | 0.95 | 4.3 · 10^5 | 5.7 | 3.0 | did not show any activity | 5.4 | 3.1 | did not show any activity | 4.8% | 1.00 | 2.4% | Relative HS fluorescence intensity [9]: 0.95
COCCCCCCCCCN1C[C@H](O)[C@@H](O)[C@H](O)[C@H]1CO.Cl [D-MONDNJ•HCl] | – | – | – | – | – | – | – | – | – | – | 5.0 · 10^5 | – | – | – | – | – | – | – | – | – | Cells positive for HS (%) [1]: 5.0%; Cells positive for Lamp1 (%) [1]: 5.3%; Cells positive for HS (%) [6]: 95.8%; Cells positive for Lamp1 (%) [6]: 93.8%; Cells positive for HS (%) [7]: 99.2%; Cells positive for Lamp1 (%) [7]: 95.2%; Relative amyloid fluorescence intensity [10]: 1.05
CCCCCCCCCOCCCCCN1C[C@@H](O)[C@H](O)[C@@H](O)[C@@H]1CO [L-NPDNJ•HCl] | 1.0 | 1.0 | 97.5% | 3.65 | did not show any activity | 84% | 2.65 | did not show any activity | did not show any activity | 1.19 | 4.7 · 10^5 | 5.9 | 3.3 | did not show any activity | 5.2 | 2.8 | did not show any activity | 3.7% | 1.10 | 4.4% | Relative HS fluorescence intensity [9]: 0.93
OC[C@@H]1[C@@H](O)[C@H](O)[C@@H](O)CN1CCCCCOCC12CC3CC(CC(C3)C1)C2 [D-AMPDNM•HCl] | – | – | – | – | – | – | – | – | – | – | 5.1 · 10^5 | – | – | – | – | – | – | – | – | – | Cells positive for HS (%) [1]: 4.9%; Cells positive for Lamp1 (%) [1]: 5.1%; Cells positive for HS (%) [6]: 96.4%; Cells positive for Lamp1 (%) [6]: 94.6%; Cells positive for HS (%) [7]: 98.7%; Cells positive for Lamp1 (%) [7]: 96.8%; Relative amyloid fluorescence intensity [10]: 1.02
OC[C@H]1NC[C@H](O)[C@@H](O)[C@@H]1O [D-DNJ•HCl, deoxynojirimycin] | – | – | – | – | – | – | – | – | – | – | 4.4 · 10^5 | – | – | – | – | – | – | – | – | – | Cells positive for HS (%) [1]: 2.4%; Cells positive for Lamp1 (%) [1]: 5.0%; Cells positive for HS (%) [6]: 94.9%; Cells positive for Lamp1 (%) [6]: 92.5%; Cells positive for HS (%) [7]: 97.3%; Cells positive for Lamp1 (%) [7]: 95.0%; Relative amyloid fluorescence intensity [10]: 0.99
